# Species: Rattus norvegicus
# Experiment: DrugMatrix - Regimen: Daily Repeat
# Assay type: toxicity, organism-based, Sprague-Dawley
# Design: regimen Daily Repeat, gender Male, age 6-8 weeks
# Details: in vivo, po, route oral GAVAGE, […]; for ABSOLUTE BASOPHIL / ABSOLUTE EOSINOPHIL / ABSOLUTE LYMPHOCYTE / ABSOLUTE MONOCYTE / ABSOLUTE SEGMENTED NEUTROPHIL / BASOPHIL / EOSINOPHIL / ERYTHROCYTE COUNT / HEMATOCRIT / HEMOGLOBIN / LEUKOCYTE COUNT / LYMPHOCYTE / MEAN CORPUSCULAR HEMOGLOBIN / MEAN CORPUSCULAR HEMOGLOBIN CONCENTRATION / MEAN CORPUSCULAR VOLUME / MONOCYTE / NEUTROPHIL / NUCLEATED RED BLOOD CELLS / PLATELET COUNT: tissue Blood; for ALANINE AMINOTRANSFERASE / ALBUMIN / ALKALINE PHOSPHATASE / ASPARTATE AMINOTRANSFERASE / BLOOD UREA NITROGEN / CARBON DIOXIDE / CHLORIDE / CHOLESTEROL / CREATINE PHOSPHOKINASE / CREATININE / GLUCOSE / LACTATE DEHYDROGENASE / LIPASE / PHOSPHORUS / POTASSIUM / SODIUM / TOTAL BILIRUBIN / TOTAL PROTEIN / URIC ACID: tissue Plasma
# [1] = 30 mg/kg, 120 h, dose level Low, time 5 day
# [2] = 60 mg/kg, 72 h, dose level High, time 3 day
# [3] = 60 mg/kg, 120 h, dose level High, time 5 day
smiles,measurement,setting,value
Cc1oncc1C(=O)Nc1ccc(C(F)(F)F)cc1 [LEFLUNOMIDE],ABSOLUTE BASOPHIL,[1],0 CELLS/uL
same,ABSOLUTE EOSINOPHIL,[1],25.33 CELLS/uL
same,ABSOLUTE LYMPHOCYTE,[1],6685.33 CELLS/uL
same,ABSOLUTE MONOCYTE,[1],149.33 CELLS/uL
same,ABSOLUTE SEGMENTED NEUTROPHIL,[1],606.67 CELLS/uL
same,BASOPHIL,[1],0%
same,EOSINOPHIL,[1],0.33%
same,ERYTHROCYTE COUNT,[1],4.69 x10E6/uL
same,HEMATOCRIT,[1],30.27%
same,HEMOGLOBIN,[1],11.73 G/DL
same,LEUKOCYTE COUNT,[1],7.47 x10E3/uL
same,LYMPHOCYTE,[1],89.33%
same,MEAN CORPUSCULAR HEMOGLOBIN,[1],25.03 pg
same,MEAN CORPUSCULAR HEMOGLOBIN CONCENTRATION,[1],38.77 G/DL
same,MEAN CORPUSCULAR VOLUME,[1],64.57 fL
same,MONOCYTE,[1],2%
same,NEUTROPHIL,[1],8.33%
same,NUCLEATED RED BLOOD CELLS,[1],0 /100WBC
same,PLATELET COUNT,[1],507.67 x10E3/uL
same,ALANINE AMINOTRANSFERASE,[1],47.33 u/L
same,ALBUMIN,[1],3.93 G/DL
same,ALKALINE PHOSPHATASE,[1],195.67 u/L
same,ASPARTATE AMINOTRANSFERASE,[1],69.33 u/L
same,BLOOD UREA NITROGEN,[1],12.67 mg/dL
same,CARBON DIOXIDE,[1],34 mmol/L
same,CHLORIDE,[1],103 MEQ/L
same,CHOLESTEROL,[1],104.33 mg/dL
same,CREATINE PHOSPHOKINASE,[1],179 u/L
same,CREATININE,[1],0.11 mg/dL
same,GLUCOSE,[1],152.67 mg/dL
same,LACTATE DEHYDROGENASE,[1],60 u/L
same,LIPASE,[1],11.67 u/L
same,PHOSPHORUS,[1],12.6 mg/dL
same,POTASSIUM,[1],5.71 MEQ/L
same,SODIUM,[1],146.27 MEQ/L
same,TOTAL BILIRUBIN,[1],0.1 mg/dL
same,TOTAL PROTEIN,[1],5.9 G/DL
same,URIC ACID,[1],0.27 mg/dL
same,ABSOLUTE BASOPHIL,[2],0 CELLS/uL
same,ABSOLUTE EOSINOPHIL,[2],0 CELLS/uL
same,ABSOLUTE LYMPHOCYTE,[2],5003.33 CELLS/uL
same,ABSOLUTE MONOCYTE,[2],42.67 CELLS/uL
same,ABSOLUTE SEGMENTED NEUTROPHIL,[2],720.67 CELLS/uL
same,BASOPHIL,[2],0%
same,EOSINOPHIL,[2],0%
same,ERYTHROCYTE COUNT,[2],5.59 x10E6/uL
same,HEMATOCRIT,[2],34.57%
same,HEMOGLOBIN,[2],13.67 G/DL
same,LEUKOCYTE COUNT,[2],5.77 x10E3/uL
same,LYMPHOCYTE,[2],89%
same,MEAN CORPUSCULAR HEMOGLOBIN,[2],24.5 pg
same,MEAN CORPUSCULAR HEMOGLOBIN CONCENTRATION,[2],39.53 G/DL
same,MEAN CORPUSCULAR VOLUME,[2],61.87 fL
same,MONOCYTE,[2],0.67%
same,NEUTROPHIL,[2],10.33%
same,NUCLEATED RED BLOOD CELLS,[2],0 /100WBC
same,PLATELET COUNT,[2],824 x10E3/uL
same,ALANINE AMINOTRANSFERASE,[2],39.67 u/L
same,ALBUMIN,[2],3.1 G/DL
same,ALKALINE PHOSPHATASE,[2],225.67 u/L
same,ASPARTATE AMINOTRANSFERASE,[2],100.33 u/L
same,BLOOD UREA NITROGEN,[2],14 mg/dL
same,CARBON DIOXIDE,[2],30 mmol/L
same,CHLORIDE,[2],98.67 MEQ/L
same,CHOLESTEROL,[2],115.33 mg/dL
same,CREATINE PHOSPHOKINASE,[2],296.67 u/L
same,CREATININE,[2],0.11 mg/dL
same,GLUCOSE,[2],170 mg/dL
same,LACTATE DEHYDROGENASE,[2],93.67 u/L
same,LIPASE,[2],11.33 u/L
same,PHOSPHORUS,[2],10.73 mg/dL
same,POTASSIUM,[2],4.3 MEQ/L
same,SODIUM,[2],142.97 MEQ/L
same,TOTAL BILIRUBIN,[2],0.17 mg/dL
same,TOTAL PROTEIN,[2],4.97 G/DL
same,URIC ACID,[2],0.43 mg/dL
same,ABSOLUTE BASOPHIL,[3],0 CELLS/uL
same,ABSOLUTE EOSINOPHIL,[3],23 CELLS/uL
same,ABSOLUTE LYMPHOCYTE,[3],3653 CELLS/uL
same,ABSOLUTE MONOCYTE,[3],48 CELLS/uL
same,ABSOLUTE SEGMENTED NEUTROPHIL,[3],376 CELLS/uL
same,BASOPHIL,[3],0%
same,EOSINOPHIL,[3],0.67%
same,ERYTHROCYTE COUNT,[3],6.19 x10E6/uL
same,HEMATOCRIT,[3],39%
same,HEMOGLOBIN,[3],15.23 G/DL
same,LEUKOCYTE COUNT,[3],4.1 x10E3/uL
same,LYMPHOCYTE,[3],89.33%
same,MEAN CORPUSCULAR HEMOGLOBIN,[3],24.77 pg
same,MEAN CORPUSCULAR HEMOGLOBIN CONCENTRATION,[3],39.07 G/DL
same,MEAN CORPUSCULAR VOLUME,[3],63.4 fL
same,MONOCYTE,[3],1.33%
same,NEUTROPHIL,[3],8.67%
same,NUCLEATED RED BLOOD CELLS,[3],0 /100WBC
same,PLATELET COUNT,[3],441.33 x10E3/uL
same,ALANINE AMINOTRANSFERASE,[3],25.67 u/L
same,ALBUMIN,[3],3.73 G/DL
same,ALKALINE PHOSPHATASE,[3],203 u/L
same,ASPARTATE AMINOTRANSFERASE,[3],75.67 u/L
same,BLOOD UREA NITROGEN,[3],64.67 mg/dL
same,CARBON DIOXIDE,[3],24.33 mmol/L
same,CHLORIDE,[3],98.5 MEQ/L
same,CHOLESTEROL,[3],138.67 mg/dL
same,CREATINE PHOSPHOKINASE,[3],227.67 u/L
same,CREATININE,[3],0.33 mg/dL
same,GLUCOSE,[3],145.67 mg/dL
same,LACTATE DEHYDROGENASE,[3],137 u/L
same,LIPASE,[3],22.67 u/L
same,PHOSPHORUS,[3],11.8 mg/dL
same,POTASSIUM,[3],5.41 MEQ/L
same,SODIUM,[3],137.7 MEQ/L
same,TOTAL BILIRUBIN,[3],0.27 mg/dL
same,TOTAL PROTEIN,[3],6.53 G/DL
same,URIC ACID,[3],0.93 mg/dL

# From ChEMBL document CHEMBL3885881, “DrugMatrix”
